Consider 2 compounds from ChEMBL document CHEMBL1159247, “Isolation of Novel Beauvericin Analogues from the Fungus Beauveria bassiana” (1995).

≈ marks a conversion by molar mass, not a printed value.

The test system of the experiment is Aedes aegypti. Briefly: Insecticidal in Aedes aegypti fourth instar mosquito larvae after 24 hrs. It counts as functional.

As usually defined, the LC50 is the concentration that kills 50% of the test population. Low values mean a more lethal substance, high ones a less lethal substance. As to `CC[C@H](C)[C@H]1OC(=O)[C@H](Cc2ccccc2)N(C)C(=O)[C@@H](C(C)C)OC(=O)[C@H](Cc2ccccc2)N(C)C(=O)[C@@H](C(C)C)OC(=O)[C@H](Cc2ccccc2)N(C)C1=O` [BEAUVERICIN A], the LC50 stood at 31 µg/mL (≈ 38.8 µM). As to `CC(C)[C@@H]1OC(=O)[C@@H](Cc2ccccc2)N(C)C(=O)[C@H](C(C)C)OC(=O)[C@@H](Cc2ccccc2)N(C)C(=O)[C@H](C(C)C)OC(=O)[C@@H](Cc2ccccc2)N(C)C1=O` [BEAUVERICIN], the 50% lethal concentration (LC50) was 26 µg/mL (≈ 33.2 µM). The LC50 values of the last two compounds are within 1.5-fold of each other.
